Reference: ChEMBL document CHEMBL1153098, “Discovery of 2-arylthieno[3,2-d]pyrimidines containing 8-oxa-3-azabi-cyclo[3.2.1]octane in the 4-position as potent inhibitors of mTOR with selectivity over PI3K” (Bioorg Med Chem Lett, 2010)

Columns and labels:
[1] = molecular target: Phosphatidylinositol 4,5-bisphosphate 3-kinase catalytic subunit alpha isoform (Homo sapiens, UniProt P42336); experiment: Inhibition of PI3Kalpha
[2] = Selectivity index, ratio of IC50 for PI3Kalpha to IC50 for mTOR
[3] = molecular target: Serine/threonine-protein kinase mTOR (Homo sapiens, UniProt P42345); experiment: Inhibition of mTOR
LNCaP = experiment: Cytotoxicity against human LNCAP cells; type: functional, cell-based

Phosphatidylinositol 4,5-bisphosphate 3-kinase catalytic subunit alpha isoform, sequence (P42336 whole entry, canonical isoform): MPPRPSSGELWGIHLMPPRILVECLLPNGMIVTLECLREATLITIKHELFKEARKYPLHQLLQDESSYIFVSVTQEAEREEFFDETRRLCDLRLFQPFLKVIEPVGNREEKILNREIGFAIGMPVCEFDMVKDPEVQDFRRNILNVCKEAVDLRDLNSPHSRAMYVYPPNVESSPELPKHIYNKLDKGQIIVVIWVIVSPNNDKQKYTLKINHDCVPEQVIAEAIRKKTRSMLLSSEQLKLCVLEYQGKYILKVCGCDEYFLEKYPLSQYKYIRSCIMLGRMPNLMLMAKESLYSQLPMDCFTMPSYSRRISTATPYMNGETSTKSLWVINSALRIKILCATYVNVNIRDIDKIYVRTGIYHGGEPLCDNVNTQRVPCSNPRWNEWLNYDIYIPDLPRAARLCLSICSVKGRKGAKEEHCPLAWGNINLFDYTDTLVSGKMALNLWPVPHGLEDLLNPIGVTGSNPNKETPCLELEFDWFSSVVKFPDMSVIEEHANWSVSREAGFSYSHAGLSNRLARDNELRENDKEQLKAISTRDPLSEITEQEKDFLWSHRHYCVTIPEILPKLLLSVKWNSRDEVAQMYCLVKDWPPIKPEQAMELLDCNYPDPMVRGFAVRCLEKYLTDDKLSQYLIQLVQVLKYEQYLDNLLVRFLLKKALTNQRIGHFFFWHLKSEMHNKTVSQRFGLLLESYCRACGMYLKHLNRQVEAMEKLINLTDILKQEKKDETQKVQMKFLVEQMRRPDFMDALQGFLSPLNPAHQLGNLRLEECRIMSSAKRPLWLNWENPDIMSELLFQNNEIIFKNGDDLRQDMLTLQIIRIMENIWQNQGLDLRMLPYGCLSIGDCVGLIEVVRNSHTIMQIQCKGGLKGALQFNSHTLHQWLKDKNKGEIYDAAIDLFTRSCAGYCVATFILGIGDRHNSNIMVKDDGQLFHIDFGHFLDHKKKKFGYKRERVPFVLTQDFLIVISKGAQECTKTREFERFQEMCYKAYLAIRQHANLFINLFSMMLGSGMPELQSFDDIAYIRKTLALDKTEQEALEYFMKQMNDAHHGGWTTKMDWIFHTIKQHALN

Row | IC50 [1] [nM] | Ratio IC50 [2] | IC50 [3] [nM] | SMILES | IC50 (LNCaP) [nM]
1 | 8.5 | 0.14 | 61 | Nc1ncc(-c2nc(N3CCOCC3)c3sccc3n2)cn1 | 680
2 |  | 182 | 0.44 | O=C(Nc1ccncc1)Nc1ccc(-c2nc(N3CC4CCC(C3)O4)c3sccc3n2)cc1 | 10
3 |  | 56 | 16 | CN1CCN(Cc2cc3nc(-c4ccc(NC(=O)NC5CC5)cc4)nc(N4CC5CCC(C4)O5)c3s2)CC1 | 400
4 |  | 4.4 | 57 | Nc1ncc(-c2nc(N3CC4CCC(C3)O4)c3sccc3n2)cn1 | 1200
5 |  | 2010 | 0.68 | O=C(Nc1ccc(-c2nc(N3CC4CCC(C3)O4)c3sccc3n2)cc1)NC1CC1 | 40
6 |  |  | 0.34 | O=C(NCCO)Nc1ccc(-c2nc(N3CC4CCC(C3)O4)c3sccc3n2)cc1 | 
7 | > 10000 |  |  | Nc1ccc(-c2nc(N3CC4CCC(C3)O4)c3sccc3n2)cc1 | 
8 |  | 176 | 1 | CS(=O)(=O)N1CCN(Cc2cc3nc(-c4ccc(NC(=O)NC5CC5)cc4)nc(N4CC5CCC(C4)O5)c3s2)CC1 | 32
9 |  |  | 1.25 | O=C(Nc1ccccc1)Nc1ccc(-c2nc(N3CC4CCC(C3)O4)c3sccc3n2)cc1 | 
10 |  | 23 |  | CN1CCN(Cc2cc3nc(-c4ccc(NC(=O)Nc5ccncc5)cc4)nc(N4CC5CCC(C4)O5)c3s2)CC1 | 200
11 |  |  | 0.7 | CCNC(=O)Nc1ccc(-c2nc(N3CC4CCC(C3)O4)c3sccc3n2)cc1 | 
12 |  |  | 0.6 | CS(=O)(=O)N1CCN(Cc2cc3nc(-c4ccc(NC(=O)Nc5cccnc5)cc4)nc(N4CC5CCC(C4)O5)c3s2)CC1 | 
13 |  | 1110 | 0.7 | O=C(NCCF)Nc1ccc(-c2nc(N3CC4CCC(C3)O4)c3sccc3n2)cc1 | 87
14 |  | 492 | 0.9 | CNC(=O)Nc1ccc(-c2nc(N3CC4CCC(C3)O4)c3sccc3n2)cc1 | 85
15 |  | 165 | 26.5 | CC(=O)Nc1ccc(-c2nc(N3CC4CCC(C3)O4)c3sccc3n2)cc1 | 1700
16 |  | 51 | 35 | Nc1ccc(-c2nc(N3CC4CCC(C3)O4)c3sccc3n2)cn1 | 1250
17 |  | 410 | 0.29 | O=C(Nc1ccc(-c2nc(N3CC4CCC(C3)O4)c3sccc3n2)cc1)Nc1cccnc1 | 27
18 |  |  | 32 | Oc1ccc(-c2nc(N3CC4CCC(C3)O4)c3sccc3n2)cc1 | 
19 |  | 549 | 11 | COC(=O)Nc1ccc(-c2nc(N3CC4CCC(C3)O4)c3sccc3n2)cc1 | 1850
20 | 41 | 0.9 | 49 | Oc1cccc(-c2nc(N3CCOCC3)c3sccc3n2)c1 | 1300
21 |  |  | 20 | CNC(=O)Nc1ccc(-c2nc(N3CC4CCC(C3)O4)c3sc(CN4CCN(C)CC4)cc3n2)cc1 | 
22 |  | 31 |  | CN1CCN(Cc2cc3nc(-c4ccc(NC(=O)Nc5cccnc5)cc4)nc(N4CC5CCC(C4)O5)c3s2)CC1 | 148
23 |  | 392 |  | c1cc2cc(-c3nc(N4CC5CCC(C4)O5)c4sccc4n3)ccc2[nH]1 | 1350
24 |  | 33 |  | CNC(=O)Nc1ccc(-c2nc(N3CC4CCC(C3)O4)c3sc(CN4CCN(S(C)(=O)=O)CC4)cc3n2)cc1 | 120
25 |  |  | 58 | Oc1cccc(-c2nc(N3CC4CCC(C3)O4)c3sccc3n2)c1 | 
26 | 8.3 | 19 |  | CS(=O)(=O)N1CCN(Cc2cc3nc(-c4ccc(NC(=O)Nc5ccncc5)cc4)nc(N4CC5CCC(C4)O5)c3s2)CC1 | 120
